According to paper PMC8566451, “Lead optimization of novel quinolone chalcone compounds by a structure–activity relationship (SAR) study to increase efficacy and metabolic stability” (Scientific Reports, 2021):
Like-named read-outs stand apart in the source and are kept apart here.

Assays:
porcine tubulin = target: T1, porcine tubulin (Sus scrofa, UniProt P02550+P02554); test: In vitro tubulin polymerization assay; assay type: biochemical; settings: 20 µM porcine tubulin; for effect on tubulin polymerization: 3 µM compound, 37 °C, 60 min; for effect on tubulin polymerization at higher concentrations: 10, 15 and 20 µM compound
T1 construct: purchased Cytoskeleton Inc., Denver, CO BK011P
T1 sequence (P02554 whole entry): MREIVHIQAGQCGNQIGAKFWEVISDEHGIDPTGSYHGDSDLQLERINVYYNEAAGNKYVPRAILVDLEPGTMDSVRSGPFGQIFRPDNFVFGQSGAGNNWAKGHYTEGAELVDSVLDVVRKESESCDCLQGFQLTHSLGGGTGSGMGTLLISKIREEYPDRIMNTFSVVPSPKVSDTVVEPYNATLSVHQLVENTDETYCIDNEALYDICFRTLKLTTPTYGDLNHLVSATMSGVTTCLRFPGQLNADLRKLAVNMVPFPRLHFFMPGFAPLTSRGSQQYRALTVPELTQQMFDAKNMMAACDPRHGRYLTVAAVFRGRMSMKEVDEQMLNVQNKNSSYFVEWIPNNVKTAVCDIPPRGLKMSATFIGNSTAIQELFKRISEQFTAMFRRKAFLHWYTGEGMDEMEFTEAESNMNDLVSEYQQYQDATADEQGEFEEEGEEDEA
T1 sequence (P02550 whole entry): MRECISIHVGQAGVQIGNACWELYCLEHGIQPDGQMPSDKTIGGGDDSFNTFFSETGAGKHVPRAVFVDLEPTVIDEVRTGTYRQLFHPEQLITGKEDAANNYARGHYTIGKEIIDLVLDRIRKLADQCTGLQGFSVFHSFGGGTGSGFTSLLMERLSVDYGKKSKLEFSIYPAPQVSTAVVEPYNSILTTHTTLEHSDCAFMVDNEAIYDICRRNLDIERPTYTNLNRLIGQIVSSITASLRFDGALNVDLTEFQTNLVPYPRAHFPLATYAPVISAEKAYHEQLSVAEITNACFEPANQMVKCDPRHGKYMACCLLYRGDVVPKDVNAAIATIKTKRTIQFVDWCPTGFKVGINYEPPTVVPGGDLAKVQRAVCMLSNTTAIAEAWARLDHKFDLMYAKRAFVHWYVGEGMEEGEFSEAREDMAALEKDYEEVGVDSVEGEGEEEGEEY
Experimental: Spontaneous polymerization of 20 µM porcine tubulin was initiated with the addition of 1 mmol/L GTP at 37 °C and monitored every minute for 60 min in the presence of the indicated concentration of CTR-21, CTR-32, nocodazole, paclitaxel, or a DMSO vehicle control. To make the graph simpler, only 3 µM concentration is shown. […] A modified Dixon plot was used to determine the inhibitory concentration of CTR-21 and CTR-32 (Ki).
Microtubule assembly was assessed using a Tubulin Polymerization assay kit (BK011P; Cytoskeleton Inc., Denver, CO). […] Polymerization was started by incubating at 37 °C and followed by absorbance readings every 1 min at 340 nm for 1 h using a Synergy H4 plate reader.

MDA-MB231-TaxR = test: Sulforhodamine B (SRB) assay; assay type: cell-based; settings: Homo sapiens, MDA-MB231-TaxR paclitaxel-resistant breast cancer cells, 48 h
Excerpt: We had initially determined that quinolone chalcones were promising anti-proliferative through a first round screening and identified CTR-17 and CTR-20 as favorable structures for anticancer activity. […] We carried out a comparative SAR study to determine if we could further optimize the quinolone chalcone to maximize efficacy. The Sulforhodamine B (SRB) assay was used to measure the anti-proliferative/cell killing activities of CTRs, for which several different cell lines were use: the cervical cancer HeLa, the breast cancer cell lines MDA-MB231, MDA-MB468, MDA-MB231TaxR (an induced paclitaxel-resistant sub-cell line of the MDA-MB231[9]) and MCF7. In addition, a subset was tested against the melanoma cell lines MZ-MEL-3.1, Mel-SOE, UKRV-Mel-38, UKRV-Mel-17 and MDA-MB-435 (Table 1, Supplemental Table S1).
(§1) The SRB assay was used to assess drug-induced cytotoxicity and cell proliferation as previously described[2],[33],[34] with a few modifications. Briefly, cells were plated 10,000 to 25,000 cells/cm^2 in 96-well plates (100 µl medium) and allowed to adhere overnight. The cell counts were different for each cell line to ensure optimal cell growth for the duration of the assay. Eight different concentrations of compound solutions using 2–4 times serial dilutions (100 µl). Cells were then incubated for an additional 48 h and then fixed with 100 µl ice-cold 10% (w/v) trichloroacetic acid (TCA) (without removing the cell medium, final concentration, 3.3% of TCA) and stained with 0.4% SRB (w/v) in 1% acetic acid (v/v). The relative growth rate (%) was calculated for each of the compound concentrations according to the following formula: 100 * (T − T0)/(C − T0), in which T is the optical density (OD) after exposure to a certain concentration of the compound after 48 h, T0 is the OD at the start of drug exposure (time zero) and C is the control growth. The GI50 for each compound was obtained from a non-linear sigmoidal dose–response (variable slope) curve fitted by GraphPad Prism v.4.03 software.

[1] = Toxicity in mice (body weight, AST/ALT); assay type: in vivo, mouse; settings: for liver toxicity (AST and ALT): C57BL/6 mice, up to maximum doses 10 mg (CTR-21) and 50 mg (CTR-32); for toxicity in mice: mice treated at 10 mg/kg
Experimental: All animal experiments, including animal handling, care, treatments and endpoint determination were reviewed and approved by the Animal Care Committee (ACC) at Laurentian University (Sudbury, Ontario, Canada). We hereby confirm that all animal-based experiments were performed in compliance with relevant guidelines and regulations, including the ARRIVE guidelines (http://www.nc3rs.org.uk/page.asp?id=1357). Weight measurement and AST/ALT experiments were carried out as before.
Neither CTR-21 nor CTR-32 treatment notabl y affect ed the bod y weight of mice treated with CTR-21 or CTR-32. Mice ( C57B L/6) were inject ed (i.p.) ev er y three da ys with the indicated doses of CTR -21 or CTR-32, along with vehicle control. […]
doses used in this experiment (i.e., 10 mg and 50 mg for CTR-21 and CTR-32, respectivel y).
There is no si gnificant changes of AST and ALT between different groups , including vehicl e

HeLa cells = test: Cell cycle analysis by flow cytometry; assay type: cell-based, human
Experimental: Figure 5 CTR-21 arrests cells at G2/M, eventually leading to cell death by apoptosis. (a) Effects of CTR-21 on the cell cycle progression of HeLa and E112 cells. […] (b) Cell morphology of CTR-21 arrested cells. HeLa cells were treated with 30 nM of CTR-21 for 12 h, fixed with methanol and immunostained with α-tubulin or γ-tubulin, and counterstained with DAPI. Bar = […]. (c) CTR-21 promotes PARP cleavage. […] GAPDH was used as a loading control.
Cell cycle progression was determined using flow cytometry. UKRV-Mel-38 and HeLa cells were plated onto 10 cm plate at a density of 0.5 million and treated them with or without the compounds the following day for 12, 24 or 48 h. Cells were then harvested and centrifuged at 1000 rpm for 5 min, washed in PBS and then fixed with ice-cold ethanol (70%) for at least 24 h at − 20 °C. The cells were centrifuged, re-suspended in PBS solution, followed by centrifugation. The cell pellet was then stained with 100 μg/mL propidium iodide (PI) and 100 μg/mL RNase A in distilled water for at least 1 h. DNA content was measured using a Beckmann Coulter Cytomics FC500 (Beckman Coulter, Fullerton, CA), and the proportion of cell populations in G0/G1, S, and G2/M phases of cell cycle was calculated on the basis of DNA distribution histograms using CXP software (Beckman Coulter, Fullerton, CA).

[2] = test system: cancer cell lines (breast cancer, melanoma, cervical cancer); test: SRB assay, average GI50 over cancer cell lines; assay type: cell-based; settings: for fold decrease in GI50 relative to CTR-17: average GI50 compared with CTR-17
Experimental: as §1

[3] = Table 1 and Supplemental Table S1 cell lines, read-out: GI50 range over the cancer cell lines
[4] = average over the cell lines of Table 1 or Supplemental Table S1, read-out: average GI50

**Q.** For `COc1ccccc1C(=O)/C=C/c1cc2cccc(OC)c2[nH]c1=O` [CTR-21, (E)-8-methoxy-3-(3-(2-methoxyphenyl)-3-oxoprop-1-enyl) quinolin-2(1H)-one], which “effect on tubulin polymerization” value (porcine tubulin) is on record?
**A.** reduced steady-state

**Q.** And the “effect on tubulin polymerization at higher concentrations” value (porcine tubulin)?
**A.** did not appreciably increase the inhibition of tubulin dynamics

**Q.** And the GI50 (MDA-MB231-TaxR)?
**A.** 32 ± 8 nM

**Q.** What about the “liver toxicity (AST and ALT)” value [1] of the same compound?
**A.** do not show notable liver

**Q.** And the ALT ([1]; female C57BL/6 mice, 1 mg/kg)?
**A.** 118.03±25.82 U/L

**Q.** What about the AST ([1]; female C57BL/6 mice, 1 mg/kg) of the same compound?
**A.** 249.47±77.12 U/L

**Q.** And the AST/ALT ([1]; female C57BL/6 mice, 1 mg/kg)?
**A.** 2.12

**Q.** What about the ALT ([1]; female C57BL/6 mice, 5 mg/kg) of the same compound?
**A.** 142.17±45.44 U/L

**Q.** And the AST ([1]; female C57BL/6 mice, 5 mg/kg)?
**A.** 265.03±97.76 U/L

**Q.** What about the AST/ALT ([1]; female C57BL/6 mice, 5 mg/kg) of the same compound?
**A.** 1.86

**Q.** And the ALT ([1]; female C57BL/6 mice, 10 mg/kg)?
**A.** 142.98±45.61 U/L

**Q.** What about the AST ([1]; female C57BL/6 mice, 10 mg/kg) of the same compound?
**A.** 319.215±101.93 U/L

**Q.** And the AST/ALT ([1]; female C57BL/6 mice, 10 mg/kg)?
**A.** 2.23

**Q.** And the ALT ([1]; male C57BL/6 mice, 1 mg/kg)?
**A.** 128.49±60.78 U/L

**Q.** What about the AST ([1]; male C57BL/6 mice, 1 mg/kg) of the same compound?
**A.** 264.42±91.94 U/L

**Q.** What about the AST/ALT ([1]; male C57BL/6 mice, 1 mg/kg) of the same compound?
**A.** 2.06

**Q.** What about the ALT ([1]; male C57BL/6 mice, 5 mg/kg) of the same compound?
**A.** 142.71±58.30 U/L

**Q.** And the AST ([1]; male C57BL/6 mice, 5 mg/kg)?
**A.** 228.82±42.23 U/L

**Q.** And the AST/ALT ([1]; male C57BL/6 mice, 5 mg/kg)?
**A.** 1.60

**Q.** What about the ALT ([1]; male C57BL/6 mice, 10 mg/kg) of the same compound?
**A.** 123.93±49.96 U/L

**Q.** And the AST ([1]; male C57BL/6 mice, 10 mg/kg)?
**A.** 242.62±102.65 U/L

**Q.** And the AST/ALT ([1]; male C57BL/6 mice, 10 mg/kg)?
**A.** 1.96

**Q.** And the toxicity in mice [1]?
**A.** no ill-effects observed

**Q.** And the cell cycle effect (HeLa cells; HeLa, 30 nM, by 12 h, maintained after 24 h)?
**A.** arrest in G2/M

**Q.** What about the “SI, cancer over normal cells” value [2] of the same compound?
**A.** > 100 fold

**Q.** And the “enhancement of potency over CTR-17 and CTR-20” value [2]?
**A.** ~ 30 fold

**Q.** And the GI50 [2, 3]?
**A.** 5 to 91 nM

**Q.** And the “fold decrease in GI50 relative to CTR-17” value [2]?
**A.** 31 fold

**Q.** What about the GI50 [2, 4] of the same compound?
**A.** 16.4 nM

**Q.** What does the source list for `CCOc1ccccc1C(=O)/C=C/c1cc2ccccc2[nH]c1=O` [CTR-32, (E)-3-(3-(2-ethoxyphenyl)-3-oxoprop-1-enyl)quinolin-2(1H)-one]?
**A.** effect on tubulin polymerization (porcine tubulin): does not affect the steady state dynamics or Vmax of tubulin polymerization; effect on tubulin polymerization at higher concentrations (porcine tubulin): almost completely inhibited the formation of microtubule polymers; GI50 (MDA-MB231-TaxR): 22 ± 4 nM; liver toxicity (AST and ALT) [1]: do not show notable liver; ALT ([1]; female C57BL/6 mice, 30 mg/kg): 103.54±61.53 U/L; AST ([1]; female C57BL/6 mice, 30 mg/kg): 253.74±117.87 U/L; AST/ALT ([1]; female C57BL/6 mice, 30 mg/kg): 2.45; ALT ([1]; female C57BL/6 mice, 50 mg/kg): 87.81±25.42 U/L; AST ([1]; female C57BL/6 mice, 50 mg/kg): 268.16±136.88 U/L; AST/ALT ([1]; female C57BL/6 mice, 50 mg/kg): 3.05; ALT ([1]; male C57BL/6 mice, 30 mg/kg): 110.30±44.56 U/L; AST ([1]; male C57BL/6 mice, 30 mg/kg): 288.49±184.97 U/L; AST/ALT ([1]; male C57BL/6 mice, 30 mg/kg): 2.62; ALT ([1]; male C57BL/6 mice, 50 mg/kg): 96.57±45.23 U/L; AST ([1]; male C57BL/6 mice, 50 mg/kg): 217.49±39.91 U/L; AST/ALT ([1]; male C57BL/6 mice, 50 mg/kg): 2.25; toxicity in mice [1]: no ill-effects observed; cell cycle effect (HeLa cells; 3× GI50, 12 or 24 h, HeLa and UKRV-Mel-38 (Supplemental Fig. S11)): arrests the cells in G2/M; GI50 [2, 3]: 5 to 91 nM; fold decrease in GI50 relative to CTR-17 [2]: 23 fold; GI50 [2, 4]: 20 nM
